Measured values taken from patent US11446253B2, “Ionic liquids for internal delivery” (priority 2017, dated 2022).
Values joined by “and” are separate entries in the source; they are usually repeats but may differ in a detail not shown here. Equal values may be shown once.

Columns and labels:
Non-diabetic Wistar rats = assay: Consecutive oral dosing of neat CAGE capsule and insulin capsule; type: in vivo, rat; conditions: 10 U/kg insulin oral, 10 h
Experimental: Non-diabetic Wistar rats were fasted overnight for 8 h but given access to water ad libitum. […] The blood glucose for time 0 was evaluated at this point. […] Fasting was continued with free access to water till the end of study at 12 h and blood glucose was evaluated at various time points. The results were plotted as % change in blood glucose compared to initial level vs time.

[1] = test system: non-diabetic male Wistar rats; assay: Blood glucose lowering after oral administration in enterically coated capsules; type: in vivo, rat
Experimental: (§1) For the oral efficacy study, adult non-diabetic male Wistar rats were fasted overnight but given free access to water. On the next day, the capsules were administered to the rats using an oral gavage followed by subcutaneous administration of 5 mg/kg metoclopramide HCl to promote gastric emptying. Blood glucose was thereafter measured using a commercial glucose meter and subsequently every hour till 12 h. Rats were fasted throughout the period of study. […] In addition, the efficacy of subcutaneously injected 2 U/kg insulin-saline was also evaluated. […] The results were plotted as percent change in blood glucose level vs time.
as §1, with “To determine the efficacy of insulin-CAGE administered through the oral route, elongated size 9 capsules were used. […] Following this, the capsules were enterically coated three times with 12.5% w/v Eudragit® L-100 dissolved in isopropanol. For” for “For”, “Next” for “On the next”, “was” for “was also”, “time. […] After 12 h of study, rats were euthanized, and small intestinal sections were collected for tissue histology.” for “time.”

[2] = Serum insulin pharmacokinetics (human insulin ELISA); conditions: for AUCtotal: insulin-CAGE 5 U/kg intrajejunal, insulin 2 U/kg subcutaneous
Experimental: Standard protocol was followed for separation of serum from whole blood. Briefly, the blood samples were left undisturbed at RT for 15-30 minutes to allow clot formation, followed by centrifugation at 2,000 g for 10 minutes.
Fasting prior to anti-diabetic efficacy studies is routinely done (29, 62, 63). It helps avoid fluctuations in the blood glucose levels as a result of eating, which can vary between animals based on the amount and time of food intake. All animal experiments were performed in accordance with the University of California Santa Barbara animal care committee guidelines and to the Guide for the Care and Use of Animals of the Institute of Laboratory Animal Resources, National Research Council. […] The time zero blood glucose was taken after the intestine was exposed i.e. immediately prior to the injections. […] Loss in body temperature in the animals during anesthesia was prevented by placing the animals on temperature controlled warming pads prior to surgery followed by additional towel cover after surgery. The animals remained anesthetized throughout the study and were euthanized after 5 h. […] In addition, the saline group was considered as fasting control and graphs were plotted after subtracting blood glucose levels of the saline group. […] Standard protocol was followed for separation of serum from whole blood. Briefly, blood samples were left undisturbed at RT for 15-30 minutes to clot, followed by centrifugation at 2,000 g for 10 minutes. […] Pharmacodynamic bioavailability was calculated using AUC obtained from efficacy plots.

bovine trypsin = target: T1, bovine trypsin (Bos taurus, UniProt P00760); assay: Trypsin-mediated degradation of insulin (LC-MS); type: biochemical; conditions: incubated with trypsin, 37° C., 24 h
T1 construct: purchased MP Biomedicals (Santa Ana, Calif., USA)
T1 sequence (P00760 24-246): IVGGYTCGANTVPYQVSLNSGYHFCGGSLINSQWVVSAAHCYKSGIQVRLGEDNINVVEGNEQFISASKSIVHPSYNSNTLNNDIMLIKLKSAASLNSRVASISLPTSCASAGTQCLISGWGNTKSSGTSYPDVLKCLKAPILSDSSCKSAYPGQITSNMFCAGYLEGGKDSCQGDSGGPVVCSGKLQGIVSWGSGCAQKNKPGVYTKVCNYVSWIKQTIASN
Experimental: Immediately after vortex (time=0 h; t0) and at predetermined time intervals, 0.1 mL of the insulin-trypsin mixture was aliquoted, and the enzyme activity was inhibited by the addition of 0.1 mL of ice-cold 0.1% trifluoroacetic acid/acetonitrile solution (69:31, v/v). The samples were analyzed by liquid chromatography-mass spectrometry (LC-MS) to determine the amount of intact insulin in the solution at different times. An Agilent 1290/6140 Ultra High Performance Liquid Chromatography/Mass Spectrometer consisting of a 1290 Infinity LC™ binary pump, thermostat column compartment, 1290 Infinity autosampler, an Agilent 1290 diode array detector and an Agilent 6140 quadrupole MSD system was used for the analyses. For an analysis, 3 μL of the samples were injected into an Agilent 300SB-C18 2.1×75 mm, 5 μm, maintained at 25° C. and eluted with a mobile phase consisting of a gradient mixture of deionized water with 0.1% formic acid (FA) (A) and acetonitrile (B) with 0.1% FA. A gradient of 95-5% (0 min), 0-100% (10 min), 0-100% (15 min), 95-5% (15.1 min), 95-5% (18 min) A:B was used for each run. […] All experiments were conducted in triplicate and are reported are mean±standard deviation.

[3] = stored at 4° C.; cited from earlier work
[4] = test system: non-diabetic male Wistar rats; assay: In vivo bioactivity of insulin isolated from CAGE after storage; design: species or system rat; conditions: fresh, 1 U/kg subcutaneous, listed as Freshly prepared insulin solution
From the text: Prior to insulin injections, rats were fasted overnight but given free access to water and fasting continued throughout the study to eliminate variability in blood glucose due to food consumption. The results were plotted as % change in blood glucose compared to initial level vs time.

[5] = test system: non-diabetic male Wistar rats; assay: Blood glucose lowering after intrajejunal administration; type: in vivo, rat
Experimental: Before the start of the study, the rats were anesthetized, abdominal hair clipped and the area prepped for surgery using 70% ethanol and betadine. An incision was made in the abdomen to expose the intestine. […] Each formulation was tested in 6 rats with the exception of saline which was tested in only 3 rats. Thereafter, intestinal section was placed back into the abdomen and the muscle and skin sutured. Blood glucose was determined using a commercial glucose meter in the beginning and at every 0.5 h till the end of study at 5 h. The animals remained anesthetized throughout the study, at the end of which they were euthanized and the intestinal section around the injection site was removed for further histological examination to determine toxicity, if any. […] The results were plotted as % change in blood glucose levels with respect to initial reading at t=0 vs time.
Before the start of the study, the rats were anesthetized, abdominal hair clipped, and the surgery area was prepped using 70% ethanol and betadine. An incision was made in the abdomen to expose the intestine. […] The time zero blood glucose was taken after the intestine was exposed i.e. immediately prior to the injections. Each formulation was tested in 6 rats with the exception of saline which was tested in only 3 rats. Thereafter, intestinal section was placed back into the abdomen and the muscle and skin sutured. Blood glucose was determined using a commercial glucose meter at the beginning and at every 0.5 h till the end of study at 5 h. Loss in body temperature in the animals during anesthesia was prevented by placing the animals on temperature controlled warming pads prior to surgery followed by additional towel cover after surgery. The animals remained anesthetized throughout the study and were euthanized after 5 h. At the end of study at 5 h, the intestinal section around the injection site was removed for further histological examination to determine toxicity, if any. […] The results were plotted as % change in blood glucose levels with respect to initial reading vs time. In addition, the saline group was considered as fasting control and graphs were plotted after subtracting blood glucose levels of the saline group.

Caco-2 monolayers = assay: FITC-insulin transport across Caco-2 monolayers; type: cell-based, human; conditions: Caco-2 monolayers, end of study at 5 h, 10 mM CAGE or saline
Experimental: TEER was measured on a regular basis and when it reached above 200 ohms·cm^2, indicating sufficient tight junction integrity between cells, transport study was performed.
(§2) After the end of study at 5 h, the FITC-insulin concentration in the aliquots were measured using a plate reader (Tecan, Infinite M1000, Mannedorf, Switzerland) at 495/520 nm excitation/emission wavelengths and plotted as % FITC-insulin transport vs time. Furthermore, TEER was measured at every time point when aliquots were withdrawn from the transwells and plotted as % change from initial value vs time.
TEER was measured on a regular basis and when it reached above 200 ohms. cm2, indicating sufficient tight junction integrity between cells, transport study was performed.
as §2, with “[…]” for “% change from initial value”

Caco-2 cells = assay: Tight junction integrity (TEER) in Caco-2 cells; type: cell-based, human; conditions: FITC-insulin with 10 mM CAGE or saline, 5 h
Experimental: […] Furthermore, TEER was measured at every time point when aliquots were withdrawn from the transwells and plotted as % change from initial value vs time.
TEER values were recorded for each insert. […] TEER was plotted as % change from initial value vs time.

Substance: insulin: human insulin (Sigma-Aldrich) in saline or buffer, comparator
- blood glucose drop (Non-diabetic Wistar rats): around 34%
- blood glucose, % of initial levels (Non-diabetic Wistar rats): 66.9±7.1%
- blood glucose, % of initial level ([1]; 2 U/kg subcutaneous, 1 h): 51.43±5.25% and 51±5%
- drop in blood glucose ([1]; 2 U/kg subcutaneous, 1 h): 50% and 49%
- decrease in blood glucose of formulation controls ([1]; oral controls, 12 h): about 25%
- serum insulin concentration ([2]; 3 U/kg intrajejunal): hardly increased
- serum insulin level with time ([2]; 5 U/kg intrajejunal): did not show any increase
- AUCtotal ([2]; Table 1): 237.6 μIU · h/ml
- AUCtotal ([2]; Table 2): 237.6 μIU · h/mL
- intact insulin remaining (bovine trypsin): 5±0.4%
- stability at 4° C. [3]: 2 to 7 days
- blood glucose, % of initial level ([4]; 1 h): 50.73±2.47% and 51±2%
- drop in blood glucose ([4]; 1 h): 50% and 49%
- blood glucose, % of initial level ([4]; 2 h): 49.59±4.4% and 50±4%
- blood glucose, % of original level ([4]; 5 h): 92.05±4.8% and 92±5%
- blood glucose, % of initial level ([5]; 2 U/kg subcutaneous, 1 h): 48.76±7.55% and 49±8%
- maximum drop in blood glucose ([5]; 2 U/kg subcutaneous, 1 h): 51%
- blood glucose, % of initial level ([5]; 2 U/kg subcutaneous, 5 h): 101.61±6.69% and 101±7%
- decrease in blood glucose of control groups, % of initial level ([5]; intrajejunal controls (neat CAGE, 3 U/kg insulin-saline), 5 h): about 25%
- FITC-insulin transport (Caco-2 monolayers): 10%
- TEER, % of initial value (Caco-2 cells): 98.5±2.64%
